Results published in US8163771B2, “11 β-HSD1 modulators” (Exelixis, Inc., priority 2008, dated 2012).

Target: T1, recombinant human 11 β-HSD1 (Homo sapiens, UniProt P28845)
T1 construct: made in house; host or cells: E. coli
Assay: 11 β-HSD1 SPA Assay (Scintillation Proximity Assay)
Assay type: biochemical
In short: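 Scintillation proximity read-out of cortisol formed from 40 nM [3H]cortisone by purified recombinant human enzyme (30-100 nM, E. coli) with 1 mM NADPH, pH7.4, 2 hours at room temperature; beads with cortisol antibody and glycyrrhetinic acid stop the reaction, read next day. IC50 derived from inhibition normalised to background and maximal wells.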

T1 sequence (P28845 whole entry): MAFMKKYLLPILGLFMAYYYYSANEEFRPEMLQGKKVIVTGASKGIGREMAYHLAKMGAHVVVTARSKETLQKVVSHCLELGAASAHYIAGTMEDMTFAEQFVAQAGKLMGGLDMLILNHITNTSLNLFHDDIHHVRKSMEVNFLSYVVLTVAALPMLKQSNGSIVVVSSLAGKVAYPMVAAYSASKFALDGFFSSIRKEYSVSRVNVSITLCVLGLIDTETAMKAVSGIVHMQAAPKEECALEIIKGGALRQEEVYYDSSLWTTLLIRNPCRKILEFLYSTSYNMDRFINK

Question: How did the IC50 turn out when CC(C)(Oc1ccc(Cl)cc1C(F)(F)F)C(=O)N[C@H]1C[C@H]2CC[C@@H](C1)N2c1ccc(S(N)(=O)=O)cn1 [Example 211, N-{8-[5-(aminosulfonyl)pyridin-2-yl]-8-azabicyclo[3.2.1]oct-3-endo-yl}-2-{[4-chloro-2-(trifluoromethyl)phenyl]oxy}-2-methylpropanamide] was run?
Answer: < 200 nM

Question: Which IC50 does the source give for CC(C)(Oc1ncc(Cl)cc1Cl)C(=O)N[C@H]1C[C@H]2CC[C@@H](C1)N2c1ccc(C(N)=O)cn1 [Example 124, 6-[3-endo-({2-[(3,5-dichloropyridin-2-yl)oxy]-2-methylpropanoyl}amino)-8-azabicyclo[3.2.1]oct-8-yl]pyridine-3-carboxamide] here?
Answer: < 200 nM

Question: Which IC50 does the source give for CC(C)(Oc1cc(C(C)(C)C(N)=O)c(Cl)cc1Cl)C(=O)N[C@H]1C[C@H]2CC[C@@H](C1)N2c1ccc(C(=O)NCC(F)(F)F)cn1 [Example 446, 6-[3-endo-({2-[5-(1-amino-2-methyl-1-oxopropan-2-yl)-2,4-dichlorophenoxy]-2-methylpropanoyl}amino)-8-azabicyclo[3.2.1]oct-8-yl]-N-(2,2,2-trifluoroethyl)pyridine-3-carboxamide] here?
Answer: < 200 nM

Question: Which IC50 does the source give for CC(C)(Oc1ccc(Cl)cc1Cl)C(=O)N[C@H]1C[C@H]2CC[C@@H](C1)N2C(=O)c1cccc(C(N)=O)c1 [Example 327, 3-{[3-endo-({2-[(2,4-dichlorophenyl)oxy]-2-methylpropanoyl)amino)-8-azabicyclo[3.2.1]oct-8-yl]carbonyl}benzamide] here?
Answer: < 2000 nM

Question: With CC(C)(Oc1ccc(F)cc1C(F)(F)F)C(=O)N[C@H]1C[C@H]2CC[C@@H](C1)N2c1ccc(C(=O)NCC(F)F)cn1 [Example 372, N-(2,2-difluoroethyl)-6-[3-endo-({2-[4-fluoro-2-(trifluoromethyl)phenoxy]-2-methylpropanoyl}amino)-8-azabicyclo[3.2.1]oct-8-yl]pyridine-3-carboxamide] as the compound, how does the IC50 read?
Answer: < 200 nM

Question: How did the IC50 turn out when CC(C)(Oc1cc(Cl)c(F)cc1Cl)C(=O)N[C@H]1C[C@H]2CC[C@@H](C1)N2c1ccc(S(C)(=O)=O)cc1 [Example 174, 2-[(2,5-dichloro-4-fluorophenyl)oxy]-2-methyl-N-{8-[4-(methylsulfonyl)phenyl]-8-azabicyclo[3.2.1]oct-3-endo-yl}propanamide] was run?
Answer: < 2000 nM

Question: How did the IC50 turn out when CC(C)(Oc1cc(OCCO)c(Cl)cc1Cl)C(=O)N[C@H]1C[C@H]2CC[C@@H](C1)N2c1ccc(C(=O)NCC(F)(F)F)cn1 [Example 361, 6-[3-endo-({2-[2,4-dichloro-5-(2-hydroxyethoxy)phenoxy]-2-methylpropanoyl}amino)-8-azabicyclo[3.2.1]oct-8-yl]-N-(2,2,2-trifluoroethyl)pyridine-3-carboxamide] was run?
Answer: < 200 nM

Question: Which IC50 does the source give for CC(C)(Oc1cccc2[nH]ncc12)C(=O)N[C@H]1C[C@H]2CC[C@@H](C1)N2c1ccc(C(=O)NCC(F)(F)F)cn1 [Example 385, 6-(3-endo-{[2-(1H-indazol-4-yloxy)-2-methylpropanoyl]amino}-8-azabicyclo[3.2.1]oct-8-yl)-N-(2,2,2-trifluoroethyl)pyridine-3-carboxamide] here?
Answer: < 200 nM

Question: Which IC50 does the source give for CN1CCN(CCOc2cc(OC(C)(C)C(=O)N[C@H]3C[C@H]4CC[C@@H](C3)N4c3ccc(C(=O)NCC(F)(F)F)cn3)c(Cl)cc2Cl)CC1 [Example 406, 6-(3-endo-(2-(2,4-dichloro-5-(2-(4-methylpiperazin-1-yl)ethoxy)phenoxy)-2-methylpropanamido)-8-azabicyclo[3.2.1]octan-8-yl)-N-(2,2,2-trifluoroethyl)nicotinamide] here?
Answer: < 200 nM

Question: Which IC50 does the source give for CC(C)(Oc1ccc(Cl)cc1C(=O)O)C(=O)N[C@H]1C[C@H]2CC[C@@H](C1)N2c1ccc(C(=O)NCC(F)(F)F)cn1 [Example 375, 5-chloro-2-({2-methyl-1-oxo-1-[(8-{5-[(2,2,2-trifluoroethyl)carbamoyl]pyridin-2-yl}-8-azabicyclo[3.2.1]oct-3-endo-yl)amino]propan-2-yl}oxy)benzoic acid] here?
Answer: < 200 nM

Question: Which IC50 does the source give for CC(C)(Oc1ccc(F)cc1C(F)(F)F)C(=O)N[C@H]1C[C@H]2CC[C@@H](C1)N2c1ccc(C(=O)NCC(F)(F)F)cn1 [Example 145, 6-{3-endo-[(2-{[4-fluoro-2-(trifluoromethyl)phenyl]oxy}-2-methylpropanoyl)amino]-8-azabicyclo[3.2.1]oct-8-yl}-N-(2,2,2-trifluoroethyl)pyridine-3-carboxamide] here?
Answer: < 200 nM

Question: CC(C)(Oc1ccc(Cl)cc1F)C(=O)N[C@H]1C[C@H]2CC[C@@H](C1)N2c1ccc(S(C)(=O)=O)cc1 [Example 223, 2-[(4-chloro-2-fluorophenyl)oxy]-2-methyl-N-{8-[4-(methylsulfonyl)phenyl]-8-azabicyclo[3.2.1]oct-3-endo-yl}propanamide] was tested. Which IC50 did it give?
Answer: < 200 nM

Question: With CC(C)(Oc1ccc(Cl)cc1Cl)C(=O)NC1CC2CCC(C1)N2c1ccc(C(=O)NC[C@H](O)C(F)(F)F)cn1 (stereo partly drawn) [Example 456, 6-(3-endo-{[2-(2,4-dichlorophenoxy)-2-methylpropanoyl]amino}-8-azabicyclo[3.2.1]oct-8-yl)-N-[(2S)-3,3,3-trifluoro-2-hydroxypropyl]pyridine-3-carboxamide] as the compound, how does the IC50 read?
Answer: < 200 nM

Question: How did the IC50 turn out when CC(C)(Oc1ncc(Cl)cc1F)C(=O)N[C@H]1C[C@H]2CC[C@@H](C1)N2c1ccc(S(C)(=O)=O)cn1 [Example 194, 2-[(5-chloro-3-fluoropyridin-2-yl)oxy]-2-methyl-N-{8-[5-(methylsulfonyl)pyridin-2-yl]-8-azabicyclo[3.2.1]oct-3-endo-yl}propanamide] was run?
Answer: < 2000 nM

Question: How did the IC50 turn out when NC(=O)c1ccc(N2[C@@H]3CC[C@H]2C[C@@H](NC(=O)C2(c4cccc(Cl)c4)CC2)C3)nc1 [Example 102, 6-[3-endo-({[1-(3-chlorophenyl)cyclopropyl]carbonyl}amino)-8-azabicyclo[3.2.1]oct-8-yl]pyridine-3-carboxamide] was run?
Answer: < 200 nM

Question: How did the IC50 turn out when CC(C)(Oc1ccc(Cl)cc1Cl)C(=O)N[C@H]1C[C@H]2CC[C@@H](C1)N2c1ccc(C(=O)NCCN2CCOCC2)cn1 [Example 362, 6-(3-endo-{[2-(2,4-dichlorophenoxy)-2-methylpropanoyl]amino}-8-azabicyclo[3.2.1]oct-8-yl)-N-[2-(morpholin-4-yl)ethyl]pyridine-3-carboxamide] was run?
Answer: < 200 nM

Question: With CC(C)(Oc1ccc(F)cc1C(F)(F)F)C(=O)N[C@H]1C[C@H]2CC[C@@H](C1)N2c1ccc(NS(C)(=O)=O)cc1 [Example 283, 2-{[4-fluoro-2-(trifluoromethyl)phenyl]oxy}-2-methyl-N-(8-{4-[(methylsulfonyl)amino]phenyl}-8-azabicyclo[3.2.1]oct-3-endo-yl)propanamide] as the compound, how does the IC50 read?
Answer: < 200 nM

Question: CC(C)(Oc1ccc(Cl)cc1Cl)C(=O)N[C@H]1C[C@H]2CC[C@@H](C1)N2Cc1ccc(C(N)=O)cc1 [Example 295, 4-{[3-endo-({2-[(2,4-dichlorophenyl)oxy]-2-methylpropanoyl}amino)-8-azabicyclo[3.2.1]oct-8-yl]methyl}benzamide] was tested. Which IC50 did it give?
Answer: < 2000 nM

Question: With COCCNC(=O)c1ccc(N2[C@@H]3CC[C@H]2C[C@@H](NC(=O)C(C)(C)Oc2ccc(Cl)cc2)C3)nc1 [Example 89, 6-[3-endo-({2-[(4-chlorophenyl)oxy]-2-methylpropanoyl}amino)-8-azabicyclo[3.2.1]oct-8-yl]-N-[2-(methyloxy)ethyl]pyridine-3-carboxamide] as the compound, how does the IC50 read?
Answer: < 200 nM
